The values below come from patent US9247759B2, “Identification of human T2R receptors that respond to bitter compounds that elicit the bitter taste in compositions, and the use thereof in assays to identify compounds that inhibit (block) bitter taste in compositions and use thereof” (SENOMYX, INC., priority 2007, dated 2016).

The IC50 is the midpoint of a concentration-inhibition curve.

Molecules are shown by their SMILES.

For the assay, the target named is hT2R14 (Homo sapiens (Human), UniProt Q9NYV8). The experiment in a line: hT2R14 antagonist high-throughput FLIPR assay, stable cell line with G16g44, agonist aristolochic acid. The format is cell-based. The conditions noted are these: Table C; read-out: hT2R14 IC50. On the procedure: The inventors also used the automated fluorimetric […] system FLIPR using a slightly different protocol. A HEK293 cell line stably expressing G16gust44 was transfected with a hT2R expression plasmid, 24 hours later, the cells are loaded and analyzed on FLIPR.
Sequence of hT2R14 (Q9NYV8 whole entry): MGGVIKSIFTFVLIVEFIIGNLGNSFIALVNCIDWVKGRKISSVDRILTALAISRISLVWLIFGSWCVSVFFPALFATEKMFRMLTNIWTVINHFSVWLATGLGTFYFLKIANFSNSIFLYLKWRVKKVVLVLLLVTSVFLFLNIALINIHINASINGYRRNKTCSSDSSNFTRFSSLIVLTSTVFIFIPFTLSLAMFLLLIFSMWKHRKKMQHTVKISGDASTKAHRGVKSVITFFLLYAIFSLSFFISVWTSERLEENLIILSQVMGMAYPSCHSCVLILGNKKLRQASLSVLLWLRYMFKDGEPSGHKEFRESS
After a ligand is identified for a particular hT2R, a HEK293 cell line stably expressing both the hT2R and G16gust44 are generated, facilitating future screening assays to identify other ligands that activate the particular hT2R or which modulate (block or enhance) the activation of this hT2R by another bitter ligand such as a bitter compound contained in coffee. This avoids the need for transient transfection.
To identify antagonists, cell lines stably expressing hT2R8 and hT2R14, respectively, together with the promiscuous chimeric G16g44 protein were generated as described in previous patent applications. A high-throughput assay was established using the stable cell lines and FLIPR (Fluorescent Imaging Plate Reader). An agonist of hT2R8 or hT2R14 was used to activate the receptors up to 70-80% of their respective maximal activity. For hT2R8, the agonist used was andrographolide (200 […]); for hT2R14, it was aristolochic acid (3 μM). To identify antagonists, compounds with diverse chemical structures were added together with the agonist.
Regarding `Cc1cc(NC(=S)N(Cc2ccccc2C)CC2CCC(C(=O)O)CC2)ccc1Cl` (stereo not drawn) [Example 5-114, 4-((3-(4-chloro-3-methylphenyl)-1-(2-methylbenzyl)thioureido)methyl) cyclohexanecarboxylic acid], the half-inhibitory concentration (IC50) is 4870 nM.
To `CCOC(=O)C1CCC(CN(Cc2ccccc2)S(=O)(=O)c2ccc(NC(C)=O)cc2)CC1` (stereo not drawn) [Example 5-115, ethyl 4-((4-acetamido-N-benzylphenylsulfonamido)methyl) cyclohexanecarboxylate] belongs 334 nM.
To `CCOC(=O)C1CCC(CN(Cc2cccc(Br)c2)S(=O)(=O)c2ccc3c(c2)OCCO3)CC1` (stereo not drawn) [Example 5-116, ethyl 4-((N-(3-bromobenzyl)-2,3-dihydrobenzo[b][1,4]dioxine-6-sulfonamido)methyl) cyclohexanecarboxylate] belongs 2570 nM; to `CCOC(=O)C1CCC(CN(Cc2ccccc2Cl)S(=O)(=O)c2ccc(C)cc2)CC1` (stereo not drawn) [Example 5-117, ethyl 4-((N-(2-chlorobenzyl)-4-methylphenylsulfonamido)methyl) cyclohexanecarboxylate], 2820 nM.
As for `CCOC(=O)C1CCC(CN(Cc2ccccc2)S(=O)(=O)c2ccc(Br)cc2)CC1` (stereo not drawn) [Example 5-118, ethyl 4-((N-benzyl-4-bromophenylsulfonamido)methyl) cyclohexanecarboxylate], the IC50 was determined as 2340 nM.
To `CCOC(=O)C1CCC(CN(Cc2ccccc2)S(=O)(=O)c2ccc(Cl)cc2)CC1` (stereo not drawn) [Example 5-119, ethyl 4-((N-benzyl-4-chlorophenylsulfonamido)methyl) cyclohexanecarboxylate] belongs 672 nM.
To `O=C(O)c1ccc(CN(Cc2ccccc2)S(=O)(=O)c2ccc(Cl)cc2)cc1` [Example 5-120, 4-((N-benzyl-4-chlorophenylsulfonamido)methyl)benzoic acid] belongs 394 nM.
`COc1ccc(CN(Cc2ccccc2OC)S(=O)(=O)c2ccc(C(=O)O)cc2)cc1` [Example 5-121, 4-(N-(2-methoxybenzyl)-N-(4-methoxybenzyl)sulfamoyl)benzoic acid]: the half-maximal inhibitory concentration (IC50) was determined as 2940 nM.
As to `COc1ccc(CN(Cc2ccccc2)S(=O)(=O)c2cccc(OC)c2)cc1` [Example 5-122, N-benzyl-3-methoxy-N-(4-methoxybenzyl)benzenesulfonamide], the IC50 is 2220 nM.
To `COc1ccc(S(=O)(=O)N(Cc2ccc(F)cc2)CC2CCC(C(=O)O)CC2)cc1` (stereo not drawn) [Example 5-123, 4-((N-(4-fluorobenzyl)-4-methoxyphenylsulfonamido)methyl) cyclohexanecarboxylic acid] belongs 92 nM.
Take `CC(=O)Nc1ccc(S(=O)(=O)N(Cc2ccc(F)cc2)CC2CCC(C(=O)O)CC2)cc1` (stereo not drawn) [Example 5-124, 4-((4-acetamido-N-(4-fluorobenzyl)phenylsulfonamido)methyl) cyclohexanecarboxylic acid]: the IC50 worked out at 842 nM.
As to `Nc1ccc(S(=O)(=O)N(Cc2ccc(F)cc2)CC2CCC(C(=O)O)CC2)cc1` (stereo not drawn) [Example 5-125, 4-((4-amino-N-(4-fluorobenzyl)phenylsulfonamido)methyl) cyclohexanecarboxylic acid], the IC50 is 1650 nM.
Take `Cc1ccc(CN(CC2CCC(C(=O)O)CC2)S(=O)(=O)c2ccc(C)cc2)cc1` (stereo not drawn) [Example 5-126, 4-((4-methyl-N-(4-methylbenzyl)phenylsulfonamido)methyl) cyclohexanecarboxylic acid]: the IC50 amounted to 109 nM.
To `Cc1ccc(S(=O)(=O)N(Cc2ccc(C#N)cc2)CC2CCC(C(=O)O)CC2)cc1` (stereo not drawn) [Example 5-127, 4-((N-(4-cyanobenzyl)-4-methylphenylsulfonamido)methyl) cyclohexanecarboxylic acid] belongs 499 nM; to `COc1cccc(CN(CC2CCC(C(=O)O)CC2)S(=O)(=O)c2ccc(C)cc2)c1` (stereo not drawn) [Example 5-128, 4-((N-(3-methoxybenzyl)-4-methylphenylsulfonamido)methyl) cyclohexanecarboxylic acid], 36 nM; to `COc1ccc(CN(Cc2ccccc2C)S(=O)(=O)c2ccc(C(=O)O)cc2)cc1` [Example 5-129, 4-(N-(4-methoxybenzyl)-N-(2-methylbenzyl)sulfamoyl)benzoic acid], 5320 nM.
To `COc1ccc(CN(Cc2ccccc2Cl)S(=O)(=O)c2ccc(C(=O)O)cc2)cc1` [Example 5-130, 4-(N-(2-chlorobenzyl)-N-(4-methoxybenzyl)sulfamoyl)benzoic acid] belongs 7040 nM; to `O=C(O)c1ccc(S(=O)(=O)N(Cc2ccccc2)Cc2ccc(F)cc2)cc1` [Example 5-131, 4-(N-benzyl-N-(4-fluorobenzyl)sulfamoyl)benzoic acid], 8280 nM; to `Cc1ccc(CN(Cc2ccccc2)S(=O)(=O)c2ccc(C(=O)O)cc2)cc1` [Example 5-132, 4-(N-benzyl-N-(4-methylbenzyl)sulfamoyl)benzoic acid], 5390 nM.
To `COc1ccccc1CN(Cc1ccccc1)S(=O)(=O)c1ccc(C(=O)O)cc1` [Example 5-133, 4-(N-benzyl-N-(2-methoxybenzyl)sulfamoyl)benzoic acid] belongs 5060 nM; to `O=C(O)c1ccc(S(=O)(=O)N(Cc2ccccc2)Cc2ccccc2F)cc1` [Example 5-134, 4-(N-benzyl-N-(2-fluorobenzyl)sulfamoyl)benzoic acid], 6160 nM.
On to `Cc1cccc(CN(Cc2ccccc2)S(=O)(=O)c2ccc(C(=O)O)cc2)c1` [Example 5-135, 4-(N-benzyl-N-(3-methylbenzyl)sulfamoyl)benzoic acid], for which the IC50 was found to be 2290 nM.
As to `COc1cccc(CN(Cc2ccccc2)S(=O)(=O)c2ccc(C(=O)O)cc2)c1` [Example 5-136, 4-(N-benzyl-N-(3-methoxybenzyl)sulfamoyl)benzoic acid], the IC50 is 5990 nM.
To `O=C(O)c1ccc(S(=O)(=O)N(Cc2ccccc2)Cc2ccc(Cl)cc2)cc1` [Example 5-137, 4-(N-benzyl-N-(4-chlorobenzyl)sulfamoyl)benzoic acid] belongs 3980 nM.
To `CSc1ccc(CN(Cc2ccccc2)S(=O)(=O)c2ccc(C(=O)O)cc2)cc1` [Example 5-138, 4-(N-benzyl-N-(4-(methylthio)benzyl)sulfamoyl)benzoic acid] belongs 2460 nM; to `O=C(O)c1ccc(S(=O)(=O)N(Cc2ccccc2)Cc2cccc(F)c2)cc1` [Example 5-139, 4-(N-benzyl-N-(3-fluorobenzyl)sulfamoyl)benzoic acid], 2310 nM; to `Cc1ccccc1CN(Cc1ccccc1)S(=O)(=O)c1ccc(C(=O)O)cc1` [Example 5-140, 4-(N-benzyl-N-(2-methylbenzyl)sulfamoyl)benzoic acid], 2930 nM.
To `O=C(O)c1ccc(S(=O)(=O)N(Cc2ccccc2)Cc2ccccc2Cl)cc1` [Example 5-141, 4-(N-benzyl-N-(2-chlorobenzyl)sulfamoyl)benzoic acid] belongs 4490 nM.
Regarding `O=C(O)c1ccc(S(=O)(=O)N(Cc2ccccc2)Cc2cccc(Cl)c2)cc1` [Example 5-142, 4-(N-benzyl-N-(3-chlorobenzyl)sulfamoyl)benzoic acid], the IC50 was 4290 nM.
To `CCc1ccc(CN(Cc2ccccc2)S(=O)(=O)c2ccc(C(=O)O)cc2)cc1` [Example 5-143, 4-(N-benzyl-N-(4-ethylbenzyl)sulfamoyl)benzoic acid] belongs 8580 nM.
Regarding `COc1ccc(CN(Cc2ccccc2)S(=O)(=O)c2ccc(C(=O)O)cc2)cc1C` [Example 5-144, 4-(N-benzyl-N-(4-methoxy-3-methylbenzyl)sulfamoyl)benzoic acid], the IC50 was found to be 2000 nM.
To `COc1ccc(CN(Cc2ccccc2)S(=O)(=O)c2ccc(C(=O)O)cc2)cn1` [Example 5-145, 4-(N-benzyl-N-((6-methoxypyridin-3-yl)methyl)sulfamoyl)benzoic acid] belongs 3260 nM; to `N#Cc1ccc(CN(Cc2ccccc2)S(=O)(=O)c2ccc(C(=O)O)cc2)cc1` [Example 5-146, 4-(N-benzyl-N-(4-cyanobenzyl)sulfamoyl)benzoic acid], 1850 nM; to `N#Cc1ccccc1CN(Cc1ccccc1)S(=O)(=O)c1ccc(C(=O)O)cc1` [Example 5-147, 4-(N-benzyl-N-(2-cyanobenzyl)sulfamoyl)benzoic acid], 4630 nM.
With `O=C(O)c1ccc(S(=O)(=O)N(Cc2ccccc2)Cc2ccc3c(c2)OCO3)cc1` [Example 5-148, 4-(N-(benzo[d][1,3]dioxol-5-ylmethyl)-N-benzylsulfamoyl)benzoic acid], the IC50 amounted to 2170 nM.
On to `COc1ccc(CN(C(C)c2ccccc2)S(=O)(=O)c2ccc(C(=O)O)cc2)cc1` (stereo not drawn) [Example 5-149, 4-(N-(4-methoxybenzyl)-N-(1-phenylethyl)sulfamoyl)benzoic acid], for which the IC50 came to 1400 nM.
To `COc1ccc(CN(C2CCCc3ccccc32)S(=O)(=O)c2ccc(C(=O)O)cc2)cc1` (stereo not drawn) [Example 5-150, 4-(N-(4-methoxybenzyl)-N-(1,2,3,4-tetrahydronaphthalen-1-yl)sulfamoyl)benzoic acid] belongs 2420 nM; to `COc1ccc2c(c1)-c1ccccc1CN(S(=O)(=O)c1ccc(C(=O)O)cc1)C2` [Example 5-158, 4-(2-methoxy-5H-dibenzo[c,e]azepin-6(7H)-ylsulfonyl)benzoic acid], 3570 nM; to `COc1ccc(CN(Cc2ccc(F)cc2F)S(=O)(=O)c2ccc(C(=O)O)cc2)cc1` [Example 5-160, 4-(N-(2,4-difluorobenzyl)-N-(4-methoxybenzyl)sulfamoyl)benzoic acid], 1260 nM.
